Tests used:
NIH3T3 [1] = assay: Antiproliferative activity against TGFbeta-induced mouse NIH3T3 cells assessed as cell growth inhibition at 1 mM incubated for 48 hrs by CCK-8 assay; assay type: functional; conditions: NIH3T3, 48 h
NIH3T3 [2] = assay: Antiproliferative activity against TGFbeta-induced mouse NIH3T3 cells assessed as cell growth inhibition incubated for 48 hrs by CCK-8 assay; assay type: functional, cell-based; conditions: NIH3T3, 48 h
[3] = Cmax in rat at 10 mg/kg,po by HPLC-UV analysis; assay type: ADME, organism-based; parameters: dose 10 mg/kg, route po; conditions: in vivo
[4] = Tmax in rat at 10 mg/kg,po by HPLC-UV analysis; assay type: ADME, organism-based; conditions: in vivo
NIH3T3 [5] = assay: Anti-fibrogenic activity against mouse NIH3T3 cells assessed as inhibition of TGFbeta-induced Fn protein expression at 0.01 to 0.2 mM incubated for 48 hrs by western blot assay; assay type: functional, cell-based; conditions: dose 0.01-0.2 mM, DDE = dose-dependent effect
[6] = Metabolic stability in human liver microsomes assessed as intrinsic clearance measured upto 45 mins in presence of NADPH by LC/MS analysis; assay type: ADME, Microsome; conditions: read-out: CLH
[7] = Metabolic stability in rat liver microsomes assessed as intrinsic clearance measured upto 45 mins in presence of NADPH by LC/MS analysis; assay type: ADME, Microsome; conditions: read-out: CLH
[8] = Half life in rat at 10 mg/kg,po by HPLC-UV analysis; assay type: ADME, organism-based; conditions: in vivo
NIH3T3 [9] = assay: Anti-fibrogenic activity against mouse NIH3T3 cells assessed as inhibition of TGFbeta-induced COL1 protein expression at 0.01 to 0.2 mM incubated for 48 hrs by western blot assay; assay type: functional, cell-based; conditions: dose 0.01-0.2 mM, DDE = dose-dependent effect
[10] = MRT (0 to t) in rat at 10 mg/kg,po by HPLC-UV analysis; assay type: ADME, organism-based; conditions: in vivo
[11] = Half life in rat at 2 mg/kg,iv by HPLC-UV analysis; assay type: ADME, organism-based; conditions: in vivo
NIH3T3 [12] = assay: Induction of apoptosis in TGFbeta-induced mouse NIH3T3 cells assessed as increase in apoptosis rate at 0.05 mM incubated for 48 hrs by Annexin V-FITC/PI staining based flow cytometry; assay type: functional
NIH3T3 [13] = assay: Induction of apoptosis in TGFbeta-induced mouse NIH3T3 cells assessed as increase in apoptosis rate at 0.05 to 0.2 mM incubated for 48 hrs by Annexin V-FITC/PI staining based flow cytometry; assay type: functional, cell-based; conditions: dose 0.05-0.2 mM, DDE = dose-dependent effect
[14] = AUC (0-t) in rat at 10 mg/kg,po by HPLC-UV analysis; assay type: ADME, organism-based; parameters: dose 10 mg/kg, route po; conditions: in vivo
[15] = AUC (0-infinity) in rat at 10 mg/kg,po by HPLC-UV analysis; assay type: ADME, organism-based; parameters: time infinity, dose 10 mg/kg, route po; conditions: in vivo
[16] = AUC (0-infinity) in rat at 2 mg/kg,iv by HPLC-UV analysis; assay type: ADME, organism-based; parameters: time infinity, dose 2 mg/kg, route iv; conditions: in vivo
[17] = MRT (0 to t) in rat at 2 mg/kg,iv by HPLC-UV analysis; assay type: ADME, organism-based; conditions: in vivo
[18] = Metabolic stability in rat liver microsomes assessed as half life measured upto 45 mins in presence of NADPH by LC/MS analysis; assay type: ADME, Microsome
NIH3T3 [19] = assay: Anti-fibrogenic activity against mouse NIH3T3 cells assessed as inhibition of TGFbeta-induced alpha-SMA protein expression at 0.01 to 0.2 mM incubated for 48 hrs by western blot assay; assay type: functional, cell-based; conditions: dose 0.01-0.2 mM, DDE = dose-dependent effect
[20] = Metabolic stability in human liver microsomes assessed as half life measured upto 45 mins in presence of NADPH by LC/MS analysis; assay type: ADME, Microsome
[21] = Oral bioavailability in rat at 10 mg/kg by HPLC-UV analysis; assay type: ADME, organism-based; conditions: in vivo
[22] = Cmax in rat at 2 mg/kg,iv by HPLC-UV analysis; assay type: ADME, organism-based; parameters: dose 2 mg/kg, route iv; conditions: in vivo
NIH3T3 [23] = assay: Anti-fibrogenic activity against mouse NIH3T3 cells assessed as reduction in TGFbeta-induced Smad2 phosphorylation level at 0.01 to 0.2 mM incubated for 48 hrs by western blot assay; assay type: functional, cell-based; conditions: dose 0.01-0.2 mM, DDE = dose-dependent effect
[24] = AUC (0-t) in rat at 2 mg/kg,iv by HPLC-UV analysis; assay type: ADME, organism-based; parameters: dose 2 mg/kg, route iv; conditions: in vivo
[25] = Tmax in rat at 2 mg/kg,iv by HPLC-UV analysis; assay type: ADME, organism-based; conditions: in vivo
NIH3T3 [26] = assay: Anti-fibrogenic activity against mouse NIH3T3 cells assessed as inhibition of TGFbeta-induced migration rate at 0.1 to 0.4 mM incubated for 48 hrs by wound healing assay; assay type: functional, cell-based; conditions: dose 0.1-0.4 mM, DDE = dose-dependent effect
NIH3T3 [27] = assay: Anti-fibrogenic activity against mouse NIH3T3 cells assessed as reduction in TGFbeta-induced Smad3 phosphorylation level at 0.01 to 0.2 mM incubated for 48 hrs by western blot assay; assay type: functional, cell-based; conditions: dose 0.01-0.2 mM, DDE = dose-dependent effect
NIH3T3 [28] = assay: Anti-fibrogenic activity against mouse NIH3T3 cells assessed as inhibition of TGFbeta-induced alpha-SMA protein expression at 0.5 to 10 mM incubated for 48 hrs by western blot assay; assay type: functional, cell-based; conditions: dose 0.5-10 mM, DDE = dose-dependent effect
NIH3T3 [29] = assay: Anti-fibrogenic activity against mouse NIH3T3 cells assessed as inhibition of TGFbeta-induced COL1 protein expression at 0.5 to 10 mM incubated for 48 hrs by western blot assay; assay type: functional, cell-based; conditions: dose 0.5-10 mM, DDE = dose-dependent effect
NIH3T3 [30] = assay: Induction of apoptosis in TGFbeta-induced mouse NIH3T3 cells assessed as increase in apoptosis rate at 10 mM incubated for 48 hrs by Annexin V-FITC/PI staining based flow cytometry; assay type: functional
NIH3T3 [31] = assay: Anti-fibrogenic activity against mouse NIH3T3 cells assessed as inhibition of TGFbeta-induced Fn protein expression at 0.5 to 10 mM incubated for 48 hrs by western blot assay; assay type: functional, cell-based; conditions: dose 0.5-10 mM, DDE = dose-dependent effect

In the case of `O=C(Cc1cccc(Cl)c1)Nc1ccc(=O)n(-c2ccccc2)c1`, the inhibition at 1000 µM (NIH3T3 [1]) is reported as 27.6%.

With `O=C(Cc1cccc(Br)c1)Nc1ccc(=O)n(-c2ccccc2)c1` the inhibition at 1000 µM (NIH3T3 [1]) was 2.1%.

For `Cc1ccc(CC(=O)Nc2ccc(=O)n(-c3ccccc3)c2)c(C)c1`, the inhibition at 1000 µM (NIH3T3 [1]) was 68.9% and the IC50 (NIH3T3 [2]) was 240 µM.

Compound `Cc1ccc(CC(=O)Nc2ccc(=O)n(-c3ccccc3)c2)cc1` has an inhibition at 1000 µM (NIH3T3 [1]) of 52.2% and an IC50 (NIH3T3 [2]) of 950 µM.

`Cc1ccccc1CC(=O)Nc1ccc(=O)n(-c2ccccc2)c1` gave an inhibition at 1000 µM (NIH3T3 [1]) of 56.1% and an IC50 (NIH3T3 [2]) of 730 µM.

For `O=C(Cc1ccc(Br)cc1)Nc1ccc(=O)n(-c2ccccc2)c1`, the inhibition at 1000 µM (NIH3T3 [1]) was 45.7% and the IC50 (NIH3T3 [2]) was 1110 µM.

Work on `O=C(Cc1cccc(F)c1)Nc1ccc(=O)n(-c2ccccc2)c1` yielded an inhibition at 1000 µM (NIH3T3 [1]) of 21.9%.

Work on `Cc1cccc(CC(=O)Nc2ccc(=O)n(-c3ccccc3)c2)c1` yielded an inhibition at 1000 µM (NIH3T3 [1]) of 19.8%.

`O=C(Cc1ccccc1Cl)Nc1ccc(=O)n(-c2ccccc2)c1` gave an inhibition at 1000 µM (NIH3T3 [1]) of 35.2% and an IC50 (NIH3T3 [2]) of 1980 µM.

`O=C(CC1CCCCC1)Nc1ccc(=O)n(-c2ccccc2)c1` gave an inhibition at 1000 µM (NIH3T3 [1]) of 4.5%.

With `O=C(Cc1ccc(F)cc1)Nc1ccc(=O)n(-c2ccccc2)c1` the inhibition at 1000 µM (NIH3T3 [1]) was 39% and the IC50 (NIH3T3 [2]) was 1560 µM.

Work on `O=C(Cc1c(F)cc(F)cc1F)Nc1ccc(=O)n(-c2ccccc2)c1` yielded an inhibition at 1000 µM (NIH3T3 [1]) of 28.1%.

Compound `O=C(Cc1ccc(Cl)cc1)Nc1ccc(=O)n(-c2ccccc2)c1` has an inhibition at 1000 µM (NIH3T3 [1]) of 37.1% and an IC50 (NIH3T3 [2]) of 1340 µM.

Compound `O=C(Cc1ccccc1Br)Nc1ccc(=O)n(-c2ccccc2)c1` has an inhibition at 1000 µM (NIH3T3 [1]) of 48.9% and an IC50 (NIH3T3 [2]) of 1090 µM.

Compound `O=C(Cc1ccccc1C(F)(F)F)Nc1ccc(=O)n(-c2ccccc2)c1` has an inhibition at 1000 µM (NIH3T3 [1]) of 37.8% and an IC50 (NIH3T3 [2]) of 1360 µM.

With `O=C(Nc1ccc(=O)n(-c2ccccc2)c1)c1ccccc1F` the inhibition at 1000 µM (NIH3T3 [1]) was 3.5%.

Work on `O=C(Cc1ccccc1F)Nc1ccc(=O)n(-c2ccccc2)c1` yielded an inhibition at 1000 µM (NIH3T3 [1]) of 28.7%.

For `Cc1cc(C)c(CC(=O)Nc2ccc(=O)n(-c3ccccc3)c2)c(C)c1`, the Cmax [3] was 0.0685 µg/mL, the Tmax [4] was 60.7 min and the Activity (NIH3T3 [5]) was “Dde”. It also gave a CLint scaled [6] of 3.83 L/h/kg, a CLint scaled [7] of 6.63 L/h/kg and a half-life [8] of 166 min. For the same compound, the Activity (NIH3T3 [9]) was “Dde”, the MRT last [10] was 290 min and the inhibition at 1000 µM (NIH3T3 [1]) was 74.4%. For the same compound, the half-life [11] was 41.6 min, the Activity (NIH3T3 [12]) was 34.5% and the Activity (NIH3T3 [13]) was “Dde”. It also gave an AUC(0-t) [14] of 0.332 µg·h/mL, an AUC [15] of 0.4065 µg·h/mL and an AUC [16] of 0.70117 µg·h/mL. The MRT last [17] was 51.4 min, the half-life [18] was 22.5 min and the Activity (NIH3T3 [19]) was “Dde”. It also gave an IC50 (NIH3T3 [2]) of 140 µM, a half-life [20] of 27.2 min and an F [21] of 51%. The Cmax [22] was 0.712 µg/mL, the Activity (NIH3T3 [23]) was “Dde” and the AUC(0-t) [24] was 0.701 µg·h/mL. The Tmax [25] was 4.98 min, the Activity (NIH3T3 [26]) was “Dde” and the Activity (NIH3T3 [27]) was “Dde”.

In the case of `Cc1ccc(=O)n(-c2ccccc2)c1` [PIRFENIDONE], the Activity (NIH3T3 [28]) is reported as “Dde”, the CLint scaled [6] is reported as 73.9 L/h/kg and the CLint scaled [7] is reported as 104 L/h/kg. For the same compound, the Activity (NIH3T3 [29]) was “Dde”, the Activity (NIH3T3 [30]) was 31.9% and the half-life [18] was 1.46 min. For the same compound, the IC50 (NIH3T3 [2]) was 13700 µM, the Activity (NIH3T3 [31]) was “Dde” and the half-life [20] was 5.76 min.
